Assays:
[1] = system: nascent RNA (Pol II transcription rate) of AGO5, SUC5 and downstream nontarget genes; test: Nuclear run-on assay with or without FLA (flavopiridol) treatment; parameters: species or system Arabidopsis; conditions: for NRO-qPCR, AT1G71900 / NRO-qPCR, AT2G27900 / NRO-qPCR, FT / NRO-qPCR, SUC5 / NRO-qPCR, AGO5: Figure 7c
Procedure: FLA treatment assay was performed as previous report. In brief, 2-week-old seedlings were collected and incubated with 200 μM FLA or mock solution (DMSO) overnight. The treated seedlings were subjected to total RNA extraction.
Nuclear run-on assay was performed as previous report with minor changes. In brief, after nuclei isolation with buffer (0.25 M sucrose, 15 mM PIPES pH 6.8, 5 mM MgCl2, 60 mM KCl, 15 mM NaCl, 1 mM CaCl2, 0.9% Triton X-100, and protease inhibitor cocktail), the nuclear pellet was resuspended with nuclei storage buffer (50 mM Tris-HCl pH 8, 0.1 mM EDTA, 5 mM MgCl2 and 40% glycerol) and mixed with transcription buffer (10 mM Tris-HCl, pH 8, 2.5 mM MgCl2, 150 mM KCl, 2 mM DTT, 80 units RNase inhibitor, 0.5 mM BrUTP, 1 mM ATP, 1 mM GTP, 1 mM CTP, 0.5 mM UTP, and 0.2% sarkosyl). After incubation at 30 °C for 15 min, the run-on reaction was stopped by adding Trizol reagent (Thermo). The nuclear RNAs were extracted and treated with DNase. The DNA-free RNAs were then inoculated with 2 μg anti-BrdU antibody (abcam) at room temperature for 30 min and precipitated by Dynabeads (Thermo). After two times washing, RNAs were extracted using Trizol reagent (Thermo). cDNAs were synthesized using SuperScript IV Reverse Transcriptase (Thermo) and subjected to qPCR analysis.

CDK kinases = conditions: cited from earlier work

In the case of CN1CC[C@H](c2c(O)cc(O)c3c(=O)cc(-c4ccccc4Cl)oc23)[C@H](O)C1 [FLA, flavopiridol], the “nascent RNA levels upon FLA treatment (in words)” value ([1]; 200 μM FLA overnight, 2-week-old seedlings, AGO5, SUC5 and downstream nontarget genes, BrUTP run-on, qPCR, normalized to 18 S rRNA, three biological repeats) is reported as “greatly reduced”, the “difference of nascent RNA levels between genotypes upon FLA treatment (in words)” value ([1]; 200 μM FLA overnight, Fig. 7c, three biological repeats) is reported as “no obvious changes were observed between different genotypes” and the “NRO-qPCR, AT1G71900” value ([1]; Col-0 FLA, Repeat 1) is reported as 2e-5. The “NRO-qPCR, AT2G27900” value ([1]; Col-0 FLA, Repeat 1) was 4.5e-5, the “NRO-qPCR, FT” value ([1]; Col-0 FLA, Repeat 1) was 2e-6 and the “NRO-qPCR, SUC5” value ([1]; Col-0 FLA, Repeat 1) was 2e-6. For the same compound, the “NRO-qPCR, AT1G71900” value ([1]; Col-0 FLA, Repeat 2) was 1.6e-5, the “NRO-qPCR, AT2G27900” value ([1]; Col-0 FLA, Repeat 2) was 1.8e-5 and the “NRO-qPCR, FT” value ([1]; Col-0 FLA, Repeat 2) was 2e-6. The “NRO-qPCR, SUC5” value ([1]; Col-0 FLA, Repeat 2) was 1.2e-5, the “NRO-qPCR, AT1G71900” value ([1]; Col-0 FLA, Repeat 3) was 2e-6 and the “NRO-qPCR, AT2G27900” value ([1]; Col-0 FLA, Repeat 3) was 4.7e-5. The “NRO-qPCR, SUC5” value ([1]; Col-0 FLA, Repeat 3) was 5e-6, the “NRO-qPCR, AGO5” value ([1]; aipp2/paipp2 FLA, Repeat 1) was 1.35e-7 and the “NRO-qPCR, AT1G71900” value ([1]; aipp2/paipp2 FLA, Repeat 1) was 1e-5. For the same compound, the “NRO-qPCR, AT2G27900” value ([1]; aipp2/paipp2 FLA, Repeat 1) was 3.1e-5, the “NRO-qPCR, FT” value ([1]; aipp2/paipp2 FLA, Repeat 1) was 5e-6 and the “NRO-qPCR, SUC5” value ([1]; aipp2/paipp2 FLA, Repeat 1) was 1.1e-5. The “NRO-qPCR, AT1G71900” value ([1]; aipp2/paipp2 FLA, Repeat 2) was 1.3e-5, the “NRO-qPCR, AT2G27900” value ([1]; aipp2/paipp2 FLA, Repeat 2) was 2.6e-5 and the “NRO-qPCR, FT” value ([1]; aipp2/paipp2 FLA, Repeat 2) was 4e-6. The “NRO-qPCR, SUC5” value ([1]; aipp2/paipp2 FLA, Repeat 2) was 1.2e-5, the “NRO-qPCR, AGO5” value ([1]; aipp2/paipp2 FLA, Repeat 3) was 2.05e-6 and the “NRO-qPCR, AT2G27900” value ([1]; aipp2/paipp2 FLA, Repeat 3) was 2.3e-5. For the same compound, the “NRO-qPCR, AT1G71900” value ([1]; aipp3 FLA, Repeat 1) was 1.1e-5, the “NRO-qPCR, AT2G27900” value ([1]; aipp3 FLA, Repeat 1) was 1.5e-5 and the “NRO-qPCR, FT” value ([1]; aipp3 FLA, Repeat 1) was 3e-6. For the same compound, the “NRO-qPCR, SUC5” value ([1]; aipp3 FLA, Repeat 1) was 2e-6, the “NRO-qPCR, AT1G71900” value ([1]; aipp3 FLA, Repeat 2) was 1e-5 and the “NRO-qPCR, AT2G27900” value ([1]; aipp3 FLA, Repeat 2) was 5e-5. For the same compound, the “NRO-qPCR, FT” value ([1]; aipp3 FLA, Repeat 2) was 1e-6, the “NRO-qPCR, SUC5” value ([1]; aipp3 FLA, Repeat 2) was 2e-6 and the “NRO-qPCR, AT1G71900” value ([1]; aipp3 FLA, Repeat 3) was 1e-5. The “NRO-qPCR, AT2G27900” value ([1]; aipp3 FLA, Repeat 3) was 7.2e-5, the “NRO-qPCR, SUC5” value ([1]; aipp3 FLA, Repeat 3) was 1e-6 and the “NRO-qPCR, AGO5” value ([1]; cpl2 FLA, Repeat 1) was 1.31e-6. For the same compound, the “NRO-qPCR, AT1G71900” value ([1]; cpl2 FLA, Repeat 1) was 2e-6, the “NRO-qPCR, AT2G27900” value ([1]; cpl2 FLA, Repeat 1) was 1.6e-5 and the “NRO-qPCR, FT” value ([1]; cpl2 FLA, Repeat 1) was 1e-6. The “NRO-qPCR, SUC5” value ([1]; cpl2 FLA, Repeat 1) was 1e-5, the “NRO-qPCR, AGO5” value ([1]; cpl2 FLA, Repeat 2) was 5.33e-7 and the “NRO-qPCR, AT1G71900” value ([1]; cpl2 FLA, Repeat 2) was 2e-6. For the same compound, the “NRO-qPCR, AT2G27900” value ([1]; cpl2 FLA, Repeat 2) was 2.7e-5, the “NRO-qPCR, FT” value ([1]; cpl2 FLA, Repeat 2) was 2e-6 and the “NRO-qPCR, SUC5” value ([1]; cpl2 FLA, Repeat 2) was 7e-6. For the same compound, the “NRO-qPCR, AT2G27900” value ([1]; cpl2 FLA, Repeat 3) was 1.1e-5, the “NRO-qPCR, FT” value ([1]; cpl2 FLA, Repeat 3) was 1e-6 and the “NRO-qPCR, SUC5” value ([1]; cpl2 FLA, Repeat 3) was 8e-6. The “reduction of Pol II CTD phosphorylation (in words)” value (CDK kinases) was “reduce the phosphorylation of Pol II CTD by inhibiting the activity of CDK kinases”.
